Assays:
Assay in all cases: Kinase binding assay (kinase-tagged T7 phage, qPCR), Kd
FGFR1 = molecular target: T1, FGFR1 (Homo sapiens, UniProt P11362); conditions: read-out: FGFR1 (Kd nM)
T1 construct: made in house; host or cells: E. coli derived from BL21, infected with T7 phage

FGFR2 = molecular target: T2, FGFR2 (Homo sapiens, UniProt P21802); conditions: read-out: FGFR2 (Kd nM)
T2 construct: made in house; host or cells: E. coli derived from BL21, infected with T7 phage

FGFR3 = molecular target: T3, FGFR3 (Homo sapiens, UniProt P22607); conditions: read-out: FGFR3 (Kd nM)
T3 construct: made in house; host or cells: E. coli derived from BL21, infected with T7 phage

FGFR4 = molecular target: T4, FGFR4 (Homo sapiens, UniProt P22455); conditions: read-out: FGFR4 (Kd nM)
T4 construct: made in house; host or cells: E. coli derived from BL21, infected with T7 phage
T4 sequence (P22455 22-802): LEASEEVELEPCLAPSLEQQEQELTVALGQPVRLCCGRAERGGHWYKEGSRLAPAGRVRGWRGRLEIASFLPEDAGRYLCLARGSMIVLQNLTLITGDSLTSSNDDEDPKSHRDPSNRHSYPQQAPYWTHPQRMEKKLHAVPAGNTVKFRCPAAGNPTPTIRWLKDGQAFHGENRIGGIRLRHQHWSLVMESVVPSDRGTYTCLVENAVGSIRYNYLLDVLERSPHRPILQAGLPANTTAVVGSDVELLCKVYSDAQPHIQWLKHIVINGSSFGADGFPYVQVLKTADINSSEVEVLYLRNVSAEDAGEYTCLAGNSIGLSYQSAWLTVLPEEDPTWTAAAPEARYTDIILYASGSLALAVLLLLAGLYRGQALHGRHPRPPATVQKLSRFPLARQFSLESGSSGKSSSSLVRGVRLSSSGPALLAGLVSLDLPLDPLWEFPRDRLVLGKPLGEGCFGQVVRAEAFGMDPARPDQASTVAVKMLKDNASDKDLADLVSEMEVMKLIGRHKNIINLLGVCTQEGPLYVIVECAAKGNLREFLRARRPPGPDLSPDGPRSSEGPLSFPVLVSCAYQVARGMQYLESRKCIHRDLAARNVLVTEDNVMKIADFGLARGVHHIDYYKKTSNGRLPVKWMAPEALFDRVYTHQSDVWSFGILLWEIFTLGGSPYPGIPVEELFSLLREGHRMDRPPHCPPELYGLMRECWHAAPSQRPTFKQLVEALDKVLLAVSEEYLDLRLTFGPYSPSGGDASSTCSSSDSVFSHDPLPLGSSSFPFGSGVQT

T3 sequence (P22607 23-806): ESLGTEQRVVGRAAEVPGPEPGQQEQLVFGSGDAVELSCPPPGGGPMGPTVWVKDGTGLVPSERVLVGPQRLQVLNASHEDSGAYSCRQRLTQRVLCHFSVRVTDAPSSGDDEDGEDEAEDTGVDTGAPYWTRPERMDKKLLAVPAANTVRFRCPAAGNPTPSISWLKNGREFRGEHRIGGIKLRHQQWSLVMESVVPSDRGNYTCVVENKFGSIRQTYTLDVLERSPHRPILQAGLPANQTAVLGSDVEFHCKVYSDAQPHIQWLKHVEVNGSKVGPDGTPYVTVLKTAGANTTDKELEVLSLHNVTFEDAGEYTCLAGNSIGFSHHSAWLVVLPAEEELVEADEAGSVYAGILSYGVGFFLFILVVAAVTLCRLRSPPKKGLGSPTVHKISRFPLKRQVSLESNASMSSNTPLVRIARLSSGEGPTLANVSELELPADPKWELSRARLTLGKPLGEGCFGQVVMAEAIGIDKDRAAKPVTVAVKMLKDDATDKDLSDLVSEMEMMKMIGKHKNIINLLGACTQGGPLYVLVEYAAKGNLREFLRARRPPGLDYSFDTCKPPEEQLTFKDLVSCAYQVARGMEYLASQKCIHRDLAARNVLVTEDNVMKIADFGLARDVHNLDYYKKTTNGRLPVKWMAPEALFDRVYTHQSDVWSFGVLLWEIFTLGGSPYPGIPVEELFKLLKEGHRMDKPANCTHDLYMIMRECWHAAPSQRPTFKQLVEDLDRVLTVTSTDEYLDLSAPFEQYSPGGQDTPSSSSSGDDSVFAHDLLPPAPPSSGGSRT
T2 sequence (P21802 22-821): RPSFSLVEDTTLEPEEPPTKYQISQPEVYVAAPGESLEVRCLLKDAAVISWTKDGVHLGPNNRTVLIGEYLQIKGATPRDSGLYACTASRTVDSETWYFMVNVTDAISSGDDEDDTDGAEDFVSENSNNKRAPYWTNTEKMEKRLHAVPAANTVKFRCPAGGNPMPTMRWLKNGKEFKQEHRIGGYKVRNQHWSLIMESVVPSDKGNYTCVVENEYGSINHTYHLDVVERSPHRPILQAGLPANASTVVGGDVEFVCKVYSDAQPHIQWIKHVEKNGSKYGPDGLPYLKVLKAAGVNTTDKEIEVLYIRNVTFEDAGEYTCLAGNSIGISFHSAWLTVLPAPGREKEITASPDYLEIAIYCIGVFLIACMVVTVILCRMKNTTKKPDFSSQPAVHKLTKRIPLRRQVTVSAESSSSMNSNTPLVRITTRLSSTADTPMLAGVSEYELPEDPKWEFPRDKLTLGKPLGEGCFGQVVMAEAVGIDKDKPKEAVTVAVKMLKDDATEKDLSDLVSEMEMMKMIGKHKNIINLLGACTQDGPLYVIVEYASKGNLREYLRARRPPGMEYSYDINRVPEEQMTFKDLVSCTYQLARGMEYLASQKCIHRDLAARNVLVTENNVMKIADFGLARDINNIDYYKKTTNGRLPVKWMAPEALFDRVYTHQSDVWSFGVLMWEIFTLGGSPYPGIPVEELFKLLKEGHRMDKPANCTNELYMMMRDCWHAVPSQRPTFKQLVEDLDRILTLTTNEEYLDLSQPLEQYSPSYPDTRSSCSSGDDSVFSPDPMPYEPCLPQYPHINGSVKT
T1 sequence (P11362 22-822): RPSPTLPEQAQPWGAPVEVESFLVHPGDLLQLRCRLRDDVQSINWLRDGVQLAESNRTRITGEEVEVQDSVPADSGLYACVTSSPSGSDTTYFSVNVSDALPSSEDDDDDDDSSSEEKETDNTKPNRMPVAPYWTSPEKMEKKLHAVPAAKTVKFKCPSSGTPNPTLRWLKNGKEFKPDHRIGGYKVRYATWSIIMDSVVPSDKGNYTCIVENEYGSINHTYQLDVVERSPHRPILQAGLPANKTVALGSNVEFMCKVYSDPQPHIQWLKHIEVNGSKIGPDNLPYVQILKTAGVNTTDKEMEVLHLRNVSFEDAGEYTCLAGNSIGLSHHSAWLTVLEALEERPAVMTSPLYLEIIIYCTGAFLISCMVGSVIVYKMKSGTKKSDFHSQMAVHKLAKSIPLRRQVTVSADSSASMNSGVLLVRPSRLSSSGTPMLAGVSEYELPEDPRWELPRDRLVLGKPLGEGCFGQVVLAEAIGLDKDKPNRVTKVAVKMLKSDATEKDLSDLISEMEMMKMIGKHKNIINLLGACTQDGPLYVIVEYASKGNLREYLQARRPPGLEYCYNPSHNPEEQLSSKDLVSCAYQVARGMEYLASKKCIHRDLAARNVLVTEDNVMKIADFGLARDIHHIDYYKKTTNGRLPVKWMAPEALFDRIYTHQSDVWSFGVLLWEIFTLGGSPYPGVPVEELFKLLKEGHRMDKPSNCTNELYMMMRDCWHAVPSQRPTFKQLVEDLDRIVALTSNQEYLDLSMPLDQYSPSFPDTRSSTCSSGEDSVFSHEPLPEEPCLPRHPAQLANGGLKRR

Structure (SMILES)	Kd (FGFR1)	Kd (FGFR2)	Kd (FGFR3)	Kd (FGFR4)
COc1cc2[nH]nc(-c3cc(C)c(OC)c(C#N)c3)c2cc1O[C@H](C)c1c(C)cnnc1C [Example 116, (R)-5-(5-(1-(3,5-dimethylpyridazin-4-yl)ethoxy)-6-methoxy-1H-indazol-3-yl)-2-methoxy-3-methylbenzonitrile]	0.1 to 100 nM	0.1 to 100 nM	0.1 to 100 nM	0.1 to 100 nM
COc1cc2[nH]nc(-c3cc(C#N)cc(C4CC4)c3)c2cc1O[C@H](C)c1c(C)cnnc1C [Example 117, (R)-3-cyclopropyl-5-(5-(1-(3,5-dimethylpyridazin-4-yl)ethoxy)-6-methoxy-1H-indazol-3-yl)benzonitrile]	100 to 250 nM	250 to 1000 nM	100 to 250 nM	0.1 to 100 nM
Cc1cc(-c2n[nH]c3ccc(O[C@H](C)c4c(C)cnnc4C)cc23)cc(C#N)c1OC1CCN(C2CCC2)CC1 [Example 120, (R)-2-((1-cyclobutylpiperidin-4-yl)oxy)-5-(5-(1-(3,5-dimethylpyridazin-4-yl)ethoxy)-1H-indazol-3-yl)-3-methylbenzonitrile]	0.1 to 100 nM	0.1 to 100 nM	0.1 to 100 nM	0.1 to 100 nM
CCN1CCC2(CCc3cc(-c4n[nH]c5ccc(O[C@H](C)c6c(Cl)cncc6Cl)cc45)ccc3O2)CC1 [Example 121, 6-[5-[(1R)-1-(3,5-dichloro-4-pyridyl)ethoxy]-1H-indazol-3-yl]-1′-ethylspiro[chromane-2,4′-piperidine]]	0.1 to 100 nM	0.1 to 100 nM	0.1 to 100 nM	0.1 to 100 nM
C[C@@H](Oc1ccc2[nH]nc(-c3cnc(OCC(C)(C)O)c(C#N)c3)c2c1)c1c(Cl)cncc1Cl [Example 122, 5-[5-[(1R)-1-(3,5-dichloro-4-pyridyl)ethoxy]-1H-indazol-3-yl]-2-(2-hydroxy-2-methyl-propoxy)pyridine-3-carbonitrile]	0.1 to 100 nM	0.1 to 100 nM	0.1 to 100 nM	0.1 to 100 nM
COc1cc(-c2n[nH]c3ccc(O[C@H](C)c4c(Cl)cnc(F)c4Cl)cc23)cc2c1OC1(CCN(C(C)C)CC1)OC2 [Example 123, (R)-6-(5-(1-(3,5-dichloro-2-fluoropyridin-4-yl)ethoxy)-1H-indazol-3-yl)-1′-isopropyl-8-methoxy-4H-spiro[benzo[d][1,3]dioxine-2,4′-piperidine]]	250 to 1000 nM	250 to 1000 nM	0.1 to 100 nM	0.1 to 100 nM
CC(C)N1CCC(Oc2ccc(-c3n[nH]c4ccc(O[C@H](C)c5c(Cl)cncc5Cl)cc34)cc2C#N)CC1 [Example 124, 5-[5-[(1R)-1-(3,5-dichloro-4-pyridyl)ethoxy]-1H-indazol-3-yl]-2-[(1-isopropyl-4-piperidyl)oxy]benzonitrile]	0.1 to 100 nM	0.1 to 100 nM	0.1 to 100 nM	0.1 to 100 nM
COc1cc(-c2n[nH]c3ccc(O[C@H](C)c4c(C)cnnc4C)cc23)cc2c1OC1(CCN(C(C)C)CC1)OC2 [Example 125, (R)-6-(5-(1-(3,5-dimethylpyridazin-4-yl)ethoxy)-1H-indazol-3-yl)-1′-isopropyl-8-methoxy-4H-spiro[benzo[d][1,3]dioxine-2,4′-piperidine]]	0.1 to 100 nM	0.1 to 100 nM	0.1 to 100 nM	0.1 to 100 nM
COc1cc(-c2n[nH]c3ccc(O[C@H](C)c4c(Cl)cncc4Cl)cc23)cc(C#N)c1OC1CCN(C(C)C)CC1 [Example 126, 5-[5-[(1R)-1-(3,5-dichloro-4-pyridyl)ethoxy]-1H-indazol-3-yl]-2-[(1-isopropyl-4-piperidyl)oxy]-3-methoxy-benzonitrile]	250 to 1000 nM	> 1000 nM	250 to 1000 nM	0.1 to 100 nM
Cc1cnnc(C)c1[C@@H](C)Oc1ccc2[nH]nc(-c3cnc(O[C@H]4CCOC4)c(C#N)c3)c2c1 [Example 127, 5-(5-((R)-1-(3,5-dimethylpyridazin-4-yl)ethoxy)-1H-indazol-3-yl)-2-(((S)-tetrahydrofuran-3-yl)oxy)nicotinonitrile]	100 to 250 nM	0.1 to 100 nM	0.1 to 100 nM	0.1 to 100 nM
Cc1cnnc(C)c1[C@@H](C)Oc1ccc2[nH]nc(-c3cnc(O[C@@H]4CCOC4)c(C#N)c3)c2c1 [Example 128, 5-(5-((R)-1-(3,5-dimethylpyridazin-4-yl)ethoxy)-1H-indazol-3-yl)-2-(((R)-tetrahydrofuran-3-yl)oxy)nicotinonitrile]	100 to 250 nM	100 to 250 nM	0.1 to 100 nM	0.1 to 100 nM
C[C@@H](Oc1ccc2[nH]nc(-c3cnc(N[C@H]4CCOC4)c(C#N)c3)c2c1)c1c(Cl)cncc1Cl [Example 129, 5-(5-((R)-1-(3,5-dichloropyridin-4-yl)ethoxy)-1H-indazol-3-yl)-2-(((S)-tetrahydrofuran-3-yl)amino)nicotinonitrile]	0.1 to 100 nM	0.1 to 100 nM	0.1 to 100 nM	0.1 to 100 nM
C[C@@H](Oc1ccc2[nH]nc(-c3cnc(N[C@@H]4CCOC4)c(C#N)c3)c2c1)c1c(Cl)cncc1Cl [Example 130, 5-(5-((R)-1-(3,5-dichloropyridin-4-yl)ethoxy)-1H-indazol-3-yl)-2-(((R)-tetrahydrofuran-3-yl)amino)nicotinonitrile]	0.1 to 100 nM	0.1 to 100 nM	0.1 to 100 nM	0.1 to 100 nM
COc1cc2[nH]nc(-c3cnc(N(C)C)c(C#N)c3)c2cc1O[C@H](C)c1c(Cl)cncc1Cl [Example 131, 5-[5-[(1R)-1-(3,5-dichloro-4-pyridyl)ethoxy]-6-methoxy-1H-indazol-3-yl]-2-(dimethylamino)pyridine-3-carbonitrile]	0.1 to 100 nM	0.1 to 100 nM	0.1 to 100 nM	0.1 to 100 nM
C[C@@H](Oc1ccc2[nH]nc(-c3cnc(NC4CCOCC4)c(C#N)c3)c2c1)c1c(Cl)cncc1Cl [Example 132, (R)-5-(5-(1-(3,5-dichloropyridin-4-yl)ethoxy)-1H-indazol-3-yl)-2-((tetrahydro-2H-pyran-4-yl)amino)nicotinonitrile]	0.1 to 100 nM	0.1 to 100 nM	0.1 to 100 nM	0.1 to 100 nM
C[C@@H](Oc1ccc2[nH]nc(-c3cnc(O[C@H]4CCOC4)c(C#N)c3)c2c1)c1c(Cl)cncc1Cl [Example 133, 5-(5-((R)-1-(3,5-dichloropyridin-4-yl)ethoxy)-1H-indazol-3-yl)-2-(((S)-tetrahydrofuran-3-yl)oxy)nicotinonitrile]	100 to 250 nM	0.1 to 100 nM	0.1 to 100 nM	0.1 to 100 nM
C[C@@H](Oc1ccc2[nH]nc(-c3cnc(O[C@@H]4CCOC4)c(C#N)c3)c2c1)c1c(Cl)cncc1Cl [Example 134, 5-(5-((R)-1-(3,5-dichloropyridin-4-yl)ethoxy)-1H-indazol-3-yl)-2-(((R)-tetrahydrofuran-3-yl)oxy)nicotinonitrile]	100 to 250 nM	0.1 to 100 nM	0.1 to 100 nM	0.1 to 100 nM
Cc1cc2[nH]nc(-c3cnc(O[C@@H]4CCOC4)c(C#N)c3)c2cc1O[C@H](C)c1c(Cl)cncc1Cl [Example 135, 5-(5-((R)-1-(3,5-dichloropyridin-4-yl)ethoxy)-6-methyl-1H-indazol-3-yl)-2-(((R)-tetrahydrofuran-3-yl)oxy)nicotinonitrile]	0.1 to 100 nM	0.1 to 100 nM	0.1 to 100 nM	0.1 to 100 nM
COc1cc2[nH]nc(-c3cnc(O[C@@H]4CCOC4)c(C#N)c3)c2cc1O[C@H](C)c1c(Cl)cncc1Cl [Example 136, 5-(5-((R)-1-(3,5-dichloropyridin-4-yl)ethoxy)-6-methoxy-1H-indazol-3-yl)-2-(((R)-tetrahydrofuran-3-yl)oxy)nicotinonitrile]	0.1 to 100 nM	0.1 to 100 nM	0.1 to 100 nM	0.1 to 100 nM
C[C@@H](Oc1cc2c(-c3cnc(O[C@@H]4CCOC4)c(C#N)c3)n[nH]c2cc1F)c1c(Cl)cncc1Cl [Example 138, 5-(5-((R)-1-(3,5-dichloropyridin-4-yl)ethoxy)-6-fluoro-1H-indazol-3-yl)-2-(((R)-tetrahydrofuran-3-yl)oxy)nicotinonitrile]	100 to 250 nM	250 to 1000 nM	0.1 to 100 nM	0.1 to 100 nM
C[C@@H](Oc1ccc2[nH]nc(-c3cnc4c(c3)N(CC(F)(F)F)CCO4)c2c1)c1c(Cl)cncc1Cl [Example 139, (R)-7-(5-(1-(3,5-dichloropyridin-4-yl)ethoxy)-1H-indazol-3-yl)-1-(2,2,2-trifluoroethyl)-2,3-dihydro-1H-pyrido[2,3-b][1,4]oxazine 2,2,2-trifluoroacetate]	> 1000 nM	> 1000 nM	> 1000 nM	> 1000 nM
COc1cc2[nH]nc(-c3cnc4c(c3)N(S(C)(=O)=O)CCO4)c2cc1O[C@H](C)c1c(Cl)cncc1Cl [Example 140, 7-[5-[(1R)-1-(3,5-dichloro-4-pyridyl)ethoxy]-6-methoxy-1H-indazol-3-yl]-1-methylsulfonyl-2,3-dihydropyrido[2,3-b][1,4]oxazine]	250 to 1000 nM	250 to 1000 nM	100 to 250 nM	0.1 to 100 nM
CC(C)N1CCOc2ncc(-c3n[nH]c4ccc(O[C@H](C)c5c(Cl)cncc5Cl)cc34)cc21 [Example 141, (R)-7-(5-(1-(3,5-dichloropyridin-4-yl)ethoxy)-1H-indazol-3-yl)-1-isopropyl-2,3-dihydro-1H-pyrido[2,3-b][1,4]oxazine]	> 1000 nM	> 1000 nM	> 1000 nM	0.1 to 100 nM
C[C@@H](Oc1ccc2[nH]nc(-c3cnc4c(c3)N(CC(F)F)CCO4)c2c1)c1c(Cl)cncc1Cl [Example 142, (R)-7-(5-(1-(3,5-dichloropyridin-4-yl)ethoxy)-1H-indazol-3-yl)-1-(2,2-difluoroethyl)-2,3-dihydro-1H-pyrido[2,3-b][1,4]oxazine]	> 1000 nM	> 1000 nM	> 1000 nM	250 to 1000 nM
